Laboratory results as given in ChEMBL document CHEMBL5291721, “A preclinical secondary pharmacology resource illuminates target-adverse drug reaction associations of marketed drugs” (Nat Commun, 2023).

Assays:
[1] = molecular target: T1, Alpha-1A adrenergic receptor (Homo sapiens, UniProt P35348); format: functional, cell-based
T1 sequence (P35348 whole entry): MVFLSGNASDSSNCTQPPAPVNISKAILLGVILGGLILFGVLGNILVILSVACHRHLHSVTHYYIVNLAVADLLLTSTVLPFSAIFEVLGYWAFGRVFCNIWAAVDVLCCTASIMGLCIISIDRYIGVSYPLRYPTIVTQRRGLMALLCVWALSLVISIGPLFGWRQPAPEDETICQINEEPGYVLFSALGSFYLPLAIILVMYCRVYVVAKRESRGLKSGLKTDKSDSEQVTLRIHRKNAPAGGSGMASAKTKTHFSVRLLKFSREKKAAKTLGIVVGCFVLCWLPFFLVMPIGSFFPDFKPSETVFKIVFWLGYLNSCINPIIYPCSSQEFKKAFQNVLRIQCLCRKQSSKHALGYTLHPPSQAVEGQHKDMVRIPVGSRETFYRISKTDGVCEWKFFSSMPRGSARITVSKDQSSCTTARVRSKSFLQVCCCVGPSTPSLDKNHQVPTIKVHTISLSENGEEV

Glucocorticoid receptor = molecular target: T2, Glucocorticoid receptor (Homo sapiens, UniProt P04150); format: functional
T2 sequence (P04150 whole entry): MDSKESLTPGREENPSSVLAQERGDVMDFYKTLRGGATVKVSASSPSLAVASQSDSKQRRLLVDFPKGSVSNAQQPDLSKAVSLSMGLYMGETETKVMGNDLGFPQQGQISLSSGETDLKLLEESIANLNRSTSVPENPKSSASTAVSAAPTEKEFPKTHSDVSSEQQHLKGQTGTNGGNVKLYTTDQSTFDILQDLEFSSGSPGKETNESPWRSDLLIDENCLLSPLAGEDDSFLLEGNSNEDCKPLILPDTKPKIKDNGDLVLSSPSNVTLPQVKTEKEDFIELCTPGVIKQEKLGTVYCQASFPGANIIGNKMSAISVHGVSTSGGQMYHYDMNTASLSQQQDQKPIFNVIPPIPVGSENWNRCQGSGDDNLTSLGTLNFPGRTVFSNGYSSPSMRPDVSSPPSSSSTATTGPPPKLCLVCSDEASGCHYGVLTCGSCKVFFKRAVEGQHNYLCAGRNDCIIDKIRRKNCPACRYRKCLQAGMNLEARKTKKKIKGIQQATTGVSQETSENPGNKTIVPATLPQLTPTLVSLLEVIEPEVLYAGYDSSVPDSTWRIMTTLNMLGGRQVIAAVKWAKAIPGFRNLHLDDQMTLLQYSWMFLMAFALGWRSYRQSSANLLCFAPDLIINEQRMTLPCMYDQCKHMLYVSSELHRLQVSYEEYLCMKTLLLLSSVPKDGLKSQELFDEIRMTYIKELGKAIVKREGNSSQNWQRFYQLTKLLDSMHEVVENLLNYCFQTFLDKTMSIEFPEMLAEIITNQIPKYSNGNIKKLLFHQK

[2] = molecular target: T3, Prostaglandin G/H synthase 1 (Rattus norvegicus, UniProt Q63921); format: functional
T3 sequence (Q63921 whole entry): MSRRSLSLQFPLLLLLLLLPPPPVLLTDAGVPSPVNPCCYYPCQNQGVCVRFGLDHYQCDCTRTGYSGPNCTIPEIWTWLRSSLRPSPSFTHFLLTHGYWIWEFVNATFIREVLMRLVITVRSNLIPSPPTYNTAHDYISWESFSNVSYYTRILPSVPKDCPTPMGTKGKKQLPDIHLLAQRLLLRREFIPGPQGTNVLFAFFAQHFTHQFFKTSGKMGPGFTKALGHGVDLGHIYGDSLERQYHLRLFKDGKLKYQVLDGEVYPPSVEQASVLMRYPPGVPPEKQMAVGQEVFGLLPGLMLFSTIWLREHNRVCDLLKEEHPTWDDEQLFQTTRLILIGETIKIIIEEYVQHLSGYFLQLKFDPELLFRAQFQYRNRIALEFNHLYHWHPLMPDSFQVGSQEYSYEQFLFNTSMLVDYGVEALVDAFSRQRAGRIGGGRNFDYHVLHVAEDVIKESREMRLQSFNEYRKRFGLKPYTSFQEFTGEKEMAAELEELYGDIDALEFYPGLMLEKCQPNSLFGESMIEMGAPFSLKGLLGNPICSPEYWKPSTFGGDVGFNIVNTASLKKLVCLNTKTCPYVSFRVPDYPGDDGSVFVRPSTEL

Androgen receptor = molecular target: T4, Androgen receptor (Homo sapiens, UniProt P10275)
T4 sequence (P10275 whole entry): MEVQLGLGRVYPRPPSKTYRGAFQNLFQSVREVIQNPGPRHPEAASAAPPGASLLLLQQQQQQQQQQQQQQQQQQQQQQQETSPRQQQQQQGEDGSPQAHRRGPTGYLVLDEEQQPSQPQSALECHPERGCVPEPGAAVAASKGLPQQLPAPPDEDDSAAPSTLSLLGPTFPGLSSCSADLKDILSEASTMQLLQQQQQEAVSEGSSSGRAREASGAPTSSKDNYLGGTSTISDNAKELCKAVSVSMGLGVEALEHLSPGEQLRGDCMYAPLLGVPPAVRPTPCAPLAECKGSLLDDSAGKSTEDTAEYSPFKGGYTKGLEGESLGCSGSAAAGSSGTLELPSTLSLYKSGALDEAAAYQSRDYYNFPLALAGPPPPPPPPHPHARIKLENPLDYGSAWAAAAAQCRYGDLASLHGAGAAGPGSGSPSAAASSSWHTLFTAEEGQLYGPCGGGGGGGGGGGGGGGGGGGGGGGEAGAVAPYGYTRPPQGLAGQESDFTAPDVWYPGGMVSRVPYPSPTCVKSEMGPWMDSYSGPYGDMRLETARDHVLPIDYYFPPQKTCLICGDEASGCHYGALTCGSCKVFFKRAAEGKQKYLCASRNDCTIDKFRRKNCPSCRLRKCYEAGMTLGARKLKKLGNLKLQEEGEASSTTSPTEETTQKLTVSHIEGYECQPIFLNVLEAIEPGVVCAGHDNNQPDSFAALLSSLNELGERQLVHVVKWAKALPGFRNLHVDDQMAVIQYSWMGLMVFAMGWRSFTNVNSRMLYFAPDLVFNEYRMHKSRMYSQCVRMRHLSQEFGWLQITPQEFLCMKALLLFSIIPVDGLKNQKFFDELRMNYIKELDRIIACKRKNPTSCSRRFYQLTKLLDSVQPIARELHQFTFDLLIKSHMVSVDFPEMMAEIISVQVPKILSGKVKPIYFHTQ

[3] = molecular target: Gamma-aminobutyric acid receptor subunit alpha-1/alpha-2/beta-2/gamma-2 (Homo sapiens, UniProt P14867+P47870+P18507+P47869); format: functional, cell-based
[4] = molecular target: Sodium-dependent serotonin transporter (Homo sapiens, UniProt P31645)
Further: assay procedure not described here.

Sodium-dependent serotonin transporter, sequence (P31645 whole entry): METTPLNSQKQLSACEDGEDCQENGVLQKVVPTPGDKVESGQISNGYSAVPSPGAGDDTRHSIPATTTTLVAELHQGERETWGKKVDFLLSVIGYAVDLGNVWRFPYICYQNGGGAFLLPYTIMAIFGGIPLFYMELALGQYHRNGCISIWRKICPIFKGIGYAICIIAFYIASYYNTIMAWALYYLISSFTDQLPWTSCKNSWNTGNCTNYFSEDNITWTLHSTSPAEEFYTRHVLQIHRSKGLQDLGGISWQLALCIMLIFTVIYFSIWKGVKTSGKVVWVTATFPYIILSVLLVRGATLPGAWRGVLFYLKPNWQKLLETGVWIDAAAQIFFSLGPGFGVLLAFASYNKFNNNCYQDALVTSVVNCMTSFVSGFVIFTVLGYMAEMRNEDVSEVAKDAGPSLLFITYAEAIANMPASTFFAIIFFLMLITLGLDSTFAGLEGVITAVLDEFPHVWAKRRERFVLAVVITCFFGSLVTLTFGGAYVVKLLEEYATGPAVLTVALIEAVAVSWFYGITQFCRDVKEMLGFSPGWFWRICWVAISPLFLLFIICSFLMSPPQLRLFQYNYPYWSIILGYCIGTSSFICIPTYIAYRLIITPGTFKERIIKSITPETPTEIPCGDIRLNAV
Gamma-aminobutyric acid receptor subunit alpha-1/alpha-2/beta-2/gamma-2, sequence (P14867 whole entry): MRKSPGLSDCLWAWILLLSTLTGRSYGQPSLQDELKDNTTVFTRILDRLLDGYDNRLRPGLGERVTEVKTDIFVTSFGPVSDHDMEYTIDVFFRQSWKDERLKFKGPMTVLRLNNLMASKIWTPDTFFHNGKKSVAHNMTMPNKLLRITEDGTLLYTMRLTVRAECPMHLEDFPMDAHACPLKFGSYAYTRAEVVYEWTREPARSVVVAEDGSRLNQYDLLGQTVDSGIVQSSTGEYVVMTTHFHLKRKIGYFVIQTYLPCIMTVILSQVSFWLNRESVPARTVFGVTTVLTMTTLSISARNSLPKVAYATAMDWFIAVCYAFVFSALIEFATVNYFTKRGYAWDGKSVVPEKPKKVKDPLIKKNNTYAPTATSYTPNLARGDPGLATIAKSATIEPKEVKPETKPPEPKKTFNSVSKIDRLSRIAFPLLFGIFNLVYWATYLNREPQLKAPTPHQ
Gamma-aminobutyric acid receptor subunit alpha-1/alpha-2/beta-2/gamma-2, sequence (P47870 whole entry): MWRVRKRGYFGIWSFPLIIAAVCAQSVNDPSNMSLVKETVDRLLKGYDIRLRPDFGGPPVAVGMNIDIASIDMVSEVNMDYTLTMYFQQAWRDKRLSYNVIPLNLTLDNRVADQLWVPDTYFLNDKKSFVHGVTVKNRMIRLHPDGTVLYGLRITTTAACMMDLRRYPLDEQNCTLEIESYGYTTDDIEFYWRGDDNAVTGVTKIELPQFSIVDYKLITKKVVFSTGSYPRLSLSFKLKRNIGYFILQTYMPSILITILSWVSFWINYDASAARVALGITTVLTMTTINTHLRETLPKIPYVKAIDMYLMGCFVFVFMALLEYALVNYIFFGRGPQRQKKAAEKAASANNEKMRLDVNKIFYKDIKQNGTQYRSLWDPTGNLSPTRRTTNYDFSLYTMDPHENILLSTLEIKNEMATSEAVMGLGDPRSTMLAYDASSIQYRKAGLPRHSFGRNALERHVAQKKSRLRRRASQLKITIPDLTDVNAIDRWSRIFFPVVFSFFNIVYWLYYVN
Gamma-aminobutyric acid receptor subunit alpha-1/alpha-2/beta-2/gamma-2, sequence (P18507 whole entry): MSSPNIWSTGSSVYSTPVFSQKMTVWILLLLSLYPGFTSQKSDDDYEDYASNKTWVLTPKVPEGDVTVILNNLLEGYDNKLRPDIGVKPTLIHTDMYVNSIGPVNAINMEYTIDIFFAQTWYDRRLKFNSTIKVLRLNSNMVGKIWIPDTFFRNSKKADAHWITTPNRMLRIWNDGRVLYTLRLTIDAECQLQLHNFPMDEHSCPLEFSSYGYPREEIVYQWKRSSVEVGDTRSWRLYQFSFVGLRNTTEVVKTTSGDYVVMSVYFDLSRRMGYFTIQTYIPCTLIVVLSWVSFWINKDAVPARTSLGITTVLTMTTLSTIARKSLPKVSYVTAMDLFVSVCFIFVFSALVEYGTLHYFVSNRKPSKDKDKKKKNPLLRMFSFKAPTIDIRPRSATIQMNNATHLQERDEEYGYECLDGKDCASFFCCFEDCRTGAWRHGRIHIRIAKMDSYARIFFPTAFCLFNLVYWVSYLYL
Gamma-aminobutyric acid receptor subunit alpha-1/alpha-2/beta-2/gamma-2, sequence (P47869 whole entry): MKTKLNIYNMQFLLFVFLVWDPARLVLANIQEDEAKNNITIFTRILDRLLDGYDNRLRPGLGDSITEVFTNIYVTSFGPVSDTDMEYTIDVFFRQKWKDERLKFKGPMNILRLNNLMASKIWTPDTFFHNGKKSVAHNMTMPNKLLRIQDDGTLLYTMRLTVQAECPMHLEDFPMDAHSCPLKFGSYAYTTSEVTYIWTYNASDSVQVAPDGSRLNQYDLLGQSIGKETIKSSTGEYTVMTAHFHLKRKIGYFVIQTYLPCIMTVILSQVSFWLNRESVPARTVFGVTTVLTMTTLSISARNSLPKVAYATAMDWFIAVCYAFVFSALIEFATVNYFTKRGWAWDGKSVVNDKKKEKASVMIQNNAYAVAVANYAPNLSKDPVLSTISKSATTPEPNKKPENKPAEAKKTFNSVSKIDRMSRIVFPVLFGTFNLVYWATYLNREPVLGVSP

In the case of `NCCCC(O)(P(=O)(O)O)P(=O)(O)O` [ALENDRONIC ACID], the AC50 [1] was over 30 µM.

Work on `COc1cccc2c1C(=O)c1c(O)c3c(c(O)c1C2=O)C[C@@](O)(C(C)=O)C[C@@H]3O[C@H]1C[C@H](N)[C@H](O)[C@H](C)O1` [DAUNORUBICIN] yielded an AC50 (Glucocorticoid receptor) of over 10 µM.

Compound `COC(=O)N[C@@H](C)CNc1nccc(-c2cn(C(C)C)nc2-c2cc(Cl)cc(NS(C)(=O)=O)c2F)n1` [ENCORAFENIB] has an AC50 [2] of over 30 µM.

Work on COLISTIN yielded an AC50 (Androgen receptor) of over 30 µM, an AC50 [3] of over 30 µM and an AC50 [4] of over 30 µM.
